Measurements published in patent US4332803A, “Benzanilide derivative” (Mead Johnson & Company, priority 1980, dated 1982).
Read-outs that look alike come from different tables or passages of the source.

What was measured:
[1] = system: ventricular arrhythmia in mice produced by chloroform inhalation; assay: Test I: antiarrhythmic activity for ventricular arrhythmia in mice produced by chloroform inhalation; assay type: in vivo; conditions: for ED50: Mus musculus, ip, read-out: Antiarrhythmic activity, ED50
Description: I. Antiarrhythmic activity for ventricular arrhythmia in mice
produced by chloroform inhalation; ED50 expressed as mg/kg
body weight, intraperitoneal administration, J. W. Lawson, […]

in vivo = conditions: mouse, in vivo, po
Description: (§1) II. AlD50 /ATD50 mouse treated orally; ALD50 is the
(§2) lethal dose for half the animals; ATD50 is the approximate
(§3) lowest dose where signs of physiologic or neurologic deficit
(§4) appear in half the animals, expressed as mg/kg body weight.

mouse = assay: Test II: approximation of the oral toxicity in mice (ALD50/ATD50); conditions: comparison among the tabulated compounds, mice
Description: as §1, §2, §3, §4

[2] = Tests III and IV: human metabolism / blood plasma time course following oral dosing with encainide hydrochloride; conditions: for half-life: human
Experimental: III. Time following oral dosing of humans with 75 mg. of encainide
hydrochloride for clearance (plasma concentration <20 ng./ml.)
from blood plasma; hours.
IV. Approximate half life in human blood plasma following oral
dosing with encainide hydrochloride; hours.
A. Extraction of Biological Fluid.
B. High Pressure Liquid Chromatography (HPLC) Conditions. […] These standards were treated as described above.

[3] = following treatment with encainide; cited from earlier work
[4] = man, two or more hours following 50 mg. dose of encainide hydrochloride orally
Experimental: A. Extraction of Biological Fluid. To 1 ml of plasma or urine in a screw-capped tube there is added 0.2 ml of 0.5 M. Tris-HCl buffer (2-amino-2-hydroxymethyl-1,3-propanediol), pH 8.5, and 10 ml of n-butyl chloride containing 5% by volume of isopropanol. The sample is then shaken on an oscillating mixer followed by centrifugation to separate the phases. A 9 ml aliquot of the organic layer is removed and evaporated to dryness under a stream of nitrogen and the residue is redissolved in 100 mcl of ethanol. A 50 mcl aliquot of this solution is injected onto the column for high pressure liquid chromatography.
B. High Pressure Liquid Chromatography (HPLC) Conditions. A normal phase silicic acid column having dimensions 3.9 mm by 30 cm in length equipped with a variable wavelength UV detector set at 254 nm is used. The mobil phase employed consists of 500 ml of ethanol, 30 ml of water, and 0.1 ml of methanesulfonic acid at a flow rate of 1 ml per minute. A series of standards containing 0, 25, 100 and 500 ng/ml of each compound to be assayed was prepared using pooled human plasma. These standards were treated as described above. Quantification of the detector response was achieved by digital integration or measurement of peak heights. The standard curve for each component was constructed by linear regression of the detector response versus concentration from the plasma standards. […]

[5] = mice, chloroform inhalation, intraperitoneal administration, ranges are of various determinations

Structure (SMILES) | ED50 [1, 5] | LD50 (in vivo) | TD50 (in vivo) | ED50 [1] | Antiarrhythmic activity (in words) ([1]; comparison among the tabulated compounds, mice) | Toxicity (in words) (mouse) | half-life ([2]; in vivo, po, 75 mg) | Time following oral dosing for clearance (plasma concentration <20 ng./ml.) from blood plasma ([2]; humans dosed orally with 75 mg. of encainide hydrochloride) | Amount in plasma relative to encainide [3] | half-life ([2]; in vivo, po) | Presence in the blood (in words) ([2]; in vivo, po) | Time following oral dosing for clearance (plasma concentration <20 ng./ml.) from blood plasma ([2]; in vivo, po) | Concentration in blood plasma relative to Compound No. 89 [4]
COc1cccc(C(=O)Nc2ccccc2CCC2CCCCN2C)c1 (stereo not drawn) [compound 108] | 10 mg/kg | 100 mg/kg | 10 to 25 mg/kg |  |  |  |  |  |  |  |  |  | 
CN1CCCCC1CCc1ccccc1NC(=O)c1ccc(O)cc1 (stereo not drawn) [Compound No. 89, O-demethylencainide] |  | 25 to 50 mg/kg | 5 to 10 mg/kg | 1.7 to 2.8 mg/kg | somewhat more potent | somewhat more toxic in mice | 4 to 6 h | > 16 h | several times the concentration of encainide |  |  |  | 
COc1ccc(C(=O)Nc2ccccc2CCC2CCCCN2C)cc1OC (stereo not drawn) [compound 109] | 10 mg/kg | 100 mg/kg | 25 mg/kg |  |  |  |  |  |  |  |  |  | 
COc1ccc(C(=O)Nc2ccccc2CCC2CCCCN2)cc1 (stereo not drawn) [compound 139, N-demethylencainide] | 28 mg/kg | 147 mg/kg | 15.7 mg/kg |  |  |  |  |  |  |  |  |  | 
COc1cc(C(=O)Nc2ccccc2CCC2CCCCN2C)ccc1O (stereo not drawn) [Compound A, 4-Hydroxy-3-methoxy-N-[2-[2-(1-methyl-2-piperidinyl)ethyl]phenyl]benzamide] | 9.5 mg/kg | 250 mg/kg | 31.3 to 62.5 mg/kg |  |  | reduced toxicity |  |  |  | 4 to 6 h | more prolonged presence in the blood | > 16 h | substantially greater
COc1ccc(C(=O)Nc2ccccc2CCC2CCCCN2C)cc1 (stereo not drawn) [Compound No. 107, encainide] | 5.3 to 15 mg/kg | 50 to 100 mg/kg | 5 to 10 mg/kg |  |  |  |  |  |  | 2.5 to 3 h |  | 6 h | 
